Measured values: PMC12521541, “A novel D-peptide modulates DCLK1 gelsolin interactions, reducing PDAC tumor growth” (Scientific Reports, 2025)
Entries after “also recorded” stand apart in the source; their conditions may differ. Where two headings read alike, the source gives them in different places. Non-standard residues stand in square brackets, D forms with d. Residues, ends and D or L forms follow the SMILES beside them.

Columns and labels:
[1] = tested on: DCLK1 isoform 1; assay: Crossreactivity with DCLK1 isoform 1; type: binding, human
[2] = tested on: AsPC-1 pancreatic cancer cells; assay: Colony formation assay (clonogenicity), AsPC-1; type: cell-based; conditions: blinded study
[3] = tested on: Capan-1 pancreatic cancer cells; assay: Colony formation assay (clonogenicity), Capan-1; type: cell-based; conditions: blinded study
[4] = tested on: AsPC-1 cells; assay: PDAC spheroid self-renewal assay, AsPC-1; type: cell-based; conditions: Matrigel 7 days or 0.3% agar 3 weeks
Procedure: (§1) AsPC-1 and CAPAN-1 cancer cells were treated with candidate D-peptides or vehicle control and suspended in growth factor-reduced Matrigel™ for 7 days or 0.3% agar for 3 weeks and monitored for spheroid growth. The size and number of spheroids were analyzed, counted, and then compared between the treatment groups[41],[42].

[5] = tested on: Capan-1 cells; assay: PDAC spheroid self-renewal assay, Capan-1; type: cell-based; conditions: Matrigel 7 days or 0.3% agar 3 weeks
Procedure: as §1

[6] = tested on: PDAC cell lines AsPC-1 and Capan-1; assay: Functional bioassays in PDAC cell lines (overall activity); type: cell-based; conditions: summary of bioassays in AsPC-1 and Capan-1
Procedure: (§2) AsPC-1 and CAPAN-1 cells were grown as previously described with varying concentrations of candidate D-peptides[40]. Afterward, we treated cells with TACS MTT Reagent (RND Systems) at 37 C until a dark crystalline precipitate within the cells was observed. NH4OH in DMSO was added and incubated for 10 min while protected from light. We determined the OD550 and averaged it as a percentage of cell proliferation.
as §1

[7] = tested on: PDAC cells (AsPC-1 and CAPAN-1); assay: Proliferation assay (MTT); type: cell-based; conditions: OD550, in vitro
Procedure: as §2

[8] = tested on: AsPC-1 xenografts; assay: AsPC-1 xenograft tumor growth; type: in vivo; conditions: for gross inspection of excised xenografts: AsPC-1 flank xenografts, excised after treatment until day 36
Procedure: Athymic nude (Foxn1^nu/Foxn1^nu) mice were purchased from the Jackson Laboratory (Bar Harbor, Maine) and housed in pathogen-free conditions. AsPC-1 cells (1 × 10^7) were injected subcutaneously into the flanks of 4- to 6-week-old mice (n = 3/group). Tumors were measured using a caliper and the volume was calculated as (length × width^2) × 0.5. Once tumors achieved an average size of ~ 100 mm^3 mice were injected via intraperitoneal injection (10 mg/kg, […]) with selected D-peptides. Treatments were continued every three days until day 36. Xenografts were then excised and evaluated by gross inspection.

[9] = Assessment of DCLK1 D-peptide toxicity in mice; type: in vivo; conditions: athymic mice; escalating doses every three days, 750 µg increasing by 500 µg to 4000 µg/mouse; vs saline-treated controls
Procedure: Supplemental Figure 1. Assessment of DCLK1 D-peptide Toxicity in Mice. Mice received escalating doses of D-peptide 1 every three days, starting with 750 µg (equivalent to 210 nM in blood and extravascular fluid) and increasing by 500 µg per dose, reaching a maximum of 4000 µg/mouse. Monitored toxicity indicators included soft feces, urine stains, depression, rough coat, nasal/ocular discharge, hunching, and body weight changes. […] Major organs were collected, and serum was stored for further biochemical analysis.

[10] = tested on: DCLK1 isoform 4 / mAb CBT-15; assay: Competition assay: mAb CBT-15 binding to DCLK1 isoform 4; set-up: species or system human; conditions: mean ± SEM; *p < 0.01
[11] = tested on: DCLK1 isoform 4 / pGSN; assay: ELISA binding of plasma gelsolin (pGSN) to DCLK1 isoform 4; set-up: species or system human; conditions: for effect of peptide on pGSN binding to DCLK1 isoform 4: peptide 20 mg/well (so in the source), pGSN at 2 µg/ml
Procedure: (§3) Polystyrene microtitre Immulon 2HB plate was coated with freshly prepared (400 ng/50 ml) DCLK1 isoform 4 ([…]) in 0.1 M NaHCO3, pH 8.6, overnight at 4 C. After blocking with 1% gelatin in TTBS at RT, different concentrations of gelsolin or FGF19 were added (2 mg/50ul/well, 1 mg/well, 0.5 mg/well, and 0.25 mg/well at […], proteins diluted in TTBS), and incubated at RT. To study the competitive ability of peptides, we used 20 mg/well of either D-peptide 1, D-peptide 3, D-peptide 5, or the C-terminal peptide antigen for the mAb CBT-15. After incubation at RT, plates were washed with TTBS, and bound gelsolin or FGF19 was detected. Bound plasma gelsolin (ab233671; Abcam, Waltham, MA) was immunodetected with anti-gelsolin Ab (ab11081; Abcam, Waltham, MA) or FGF19 (969-FG-025; Bio-Techne, Minneapolis, MN) immunodetected by anti-FGF19 (sc-390621; Santa Cruz Biotechnology, Dallas, TX). Detection was by alkaline phosphatase-conjugated goat anti-mouse IgG (ab97020; Abcam, Waltham, MA) followed by 1-STEP NBT/BCIP substrate (#34042; ThermoFisher Scientific, Waltham, MA) and quantified at 450 nm on a microplate reader.

[12] = tested on: DCLK1 isoform 4 / FGF19; assay: ELISA binding of FGF19 to DCLK1 isoform 4; set-up: species or system human
Procedure: as §3

[13] = target: T1, DCLK1 isoform 4 (Homo sapiens, UniProt O15075); assay: SPR analysis of DCLK1 isoform 4 with Gelsolin and FGF19; type: binding; conditions: for Kinetic 1:1 Ave Kd: kinetic 1:1, average (dissociation rate)
T1 sequence (O15075 687-740 limits assumed): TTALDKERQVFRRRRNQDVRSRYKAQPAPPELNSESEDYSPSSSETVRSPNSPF
Procedure: Purification of human DCLK1 isoform 4 was performed at the University of Oklahoma Protein Production and Characterization Core Facility (Norman, OK) using an E. coli strain BL21(DE3) pLPP containing the pET19-DCLK1 isoform 4 plasmid. For Bio-layer Interferometry (BLI) experiments, a C-terminal DCLK1 isoform 2/4 His-tagged protein was used (NovoPro, Shanghai, China). All His-tagged proteins were dialyzed using PBS/glycerol to remove imidazole.

[14] = target: T2, plasma gelsolin (UniProt P06396 28-782); assay: SPR; format and conditions not told in the text shown (Fig. 4F, G; Suppl. Table 1); conditions: both partners purified
T2 construct: plasma gelsolin (pGSN), bought protein; The source is told for the ELISA only; also called pGSN; source: bought: Abcam (ab233671)

[15] = kinetic 1:1, average, read-out: Kinetic 1:1 Ave KD

T2 sequence (P06396 28-782): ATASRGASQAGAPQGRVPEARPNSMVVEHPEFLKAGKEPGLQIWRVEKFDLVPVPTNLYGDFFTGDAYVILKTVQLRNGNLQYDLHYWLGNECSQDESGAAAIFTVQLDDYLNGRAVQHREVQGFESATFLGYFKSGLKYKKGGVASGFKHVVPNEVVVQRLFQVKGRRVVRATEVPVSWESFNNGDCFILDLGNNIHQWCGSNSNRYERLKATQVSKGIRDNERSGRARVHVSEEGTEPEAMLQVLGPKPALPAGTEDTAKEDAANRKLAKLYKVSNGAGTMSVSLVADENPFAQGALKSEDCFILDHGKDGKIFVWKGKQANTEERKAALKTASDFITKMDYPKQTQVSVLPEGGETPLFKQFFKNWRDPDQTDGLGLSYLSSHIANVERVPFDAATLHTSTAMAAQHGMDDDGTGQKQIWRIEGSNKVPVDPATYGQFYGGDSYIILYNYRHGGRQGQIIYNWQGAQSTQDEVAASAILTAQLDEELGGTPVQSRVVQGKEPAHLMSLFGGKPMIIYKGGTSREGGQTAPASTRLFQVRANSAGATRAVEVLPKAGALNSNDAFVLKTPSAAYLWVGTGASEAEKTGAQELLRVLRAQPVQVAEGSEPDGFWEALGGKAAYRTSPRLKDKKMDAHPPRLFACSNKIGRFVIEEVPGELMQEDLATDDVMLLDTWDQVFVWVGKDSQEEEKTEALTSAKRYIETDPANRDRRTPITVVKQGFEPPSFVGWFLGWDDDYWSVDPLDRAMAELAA

NCC(=O)N[C@H](Cc1c[nH]c2ccccc12)C(=O)N[C@H](Cc1ccc(O)cc1)C(=O)NCC(=O)N[C@H](Cc1c[nH]c2ccccc12)C(=O)NCC(=O)N[C@H](CC(=O)O)C(=O)N[C@H](CC(=O)O)C(=O)O [D-peptide 1] (H-G[dW][dY]G[dW]G[dD][dD]-OH; N-terminus and C-terminus assumed)
crossreactivity with isoform 1 [1]: minimal crossreactivity with isoform 1 | colony formation (clonogenicity) [2]: significantly reduced colony formation (clonogenicity) at low micromolar concentrations | colony formation (clonogenicity) [3]: significantly reduced colony formation (clonogenicity) at low micromolar concentrations | spheroid formation / self-renewal capacity [4]: markedly impaired self-renewal capacity | spheroid formation / self-renewal capacity [5]: markedly impaired self-renewal capacity | potency/activity in the bioassays [6]: high potency in the bioassays | PDAC cell proliferation [7]: modest in vitro proliferation decreases | gross inspection of excised xenografts [8]: no visible necrosis or hemorrhage was observed | gross inspection of excised xenografts ([8]; listed as Dpeptide 1): no gross necrosis, hemorrhage, or cavitation | reduction of tumor volume compared to controls ([8]; AsPC-1 xenografts, athymic mice, 10 mg/kg intraperitoneal, until day 36, control peptide D-peptide 3): 60% | tumor size/growth compared to control ([8]; AsPC-1 xenografts, every three days for six doses, 36 days, control D-peptide 3 n = 8, D-peptide 1 n = 9, *p < 0.01): significantly reduced tumor size compared to control | general toxicity during xenograft treatment ([8]; flank xenograft model): without general toxicity in non–DCLK1–expressing tissues | toxicity [9]: no adverse effects compared to saline-treated controls; also recorded: no apparent toxicity | competition with mAb CBT-15 for DCLK1 isoform 4 binding [10]: interacts at a site distinct from CBT-15’s binding site; also recorded: its epitope is distinct from that of mAb CBT-15 | effect of peptide on pGSN binding to DCLK1 isoform 4 [11]: did not block the PPI interaction but seemed to improve pGSN binding to DCLK1; also recorded: enhances pGSN binding | effect of peptide on pGSN binding to DCLK1 isoform 4 ([11]; listed as Dpeptide 1): binds a distinct site and allosterically enhances pGSN association | effect of peptide on FGF19 binding to DCLK1 isoform 4 ([12]; peptide 20 mg/well (so in the source)): weak effect with FGF19-DCLK1 association

FGF19: FGF19 (969-FG-025; Bio-Techne)
Kinetic 1:1 Ave Ka ([13]; kinetic 1:1, average): 5.09E+03 M^-1s^1 | Kinetic 1:1 Ave Kd [13]: 9.13E-03 s^1 | Kd [13, 15]: 1790 nM | Kd ([13]; steady-state, average, read-out: Steady-state Affinity Ave KD): 970 nM | FGF19 binding to DCLK1 isoform 4 [12]: bound to DCLK1 isoform 4 similarly to pGSN

Gelsolin
Kinetic 1:1 Ave Ka ([13]; kinetic 1:1, average): 5.48E+03 M^-1s^1 | Kinetic 1:1 Ave Kd [13]: 5.47E-04 s^1 | Kd [13, 15]: 99 nM | concentration of maximum pGSN binding to DCLK1 isoform 4 ([11]; DCLK1-coated plates, pGSN gradient, R^2 of 0.94): 2 µg/ml | pGSN binding to DCLK1 isoform 4 ([11]; pGSN gradient): consistent, linear binding

B1: human DCLK1 isoform 4 (beta-short) (natural protein, UniProt O15075-4 1-433, looked up)
chain: MLELIEVNGTPGSQLSTPRSGKSPSPSPTSPGSLRKQRSSQHGGSSTSLASTKVCSSMDENDGPGEEVSEEGFQIPATITERYKVGRTIGDGNFAVVKECVERSTAREYALKIIKKSKCRGKEHMIQNEVSILRRVKHPNIVLLIEEMDVPTELYLVMELVKGGDLFDAITSTNKYTERDASGMLYNLASAIKYLHSLNIVHRDIKPENLLVYEHQDGSKSLKLGDFGLATIVDGPLYTVCGTPTYVAPEIIAETGYGLKVDIWAAGVITYILLCGFPPFRGSGDDQEVLFDQILMGQVDFPSPYWDNVSDSAKELITMMLLVDVDQRFSAVQVLEHPWVNDDGLPENEHQLSVAGKIKKHFNTGPKPNSTAAGVSVIATTALDKERQVFRRRRNQDVRSRYKAQPAPPELNSESEDYSPSSSETVRSPNSPF
notes: For the library screen the protein was labelled with biotin (NHS-LC-biotin); source: E. coli BL21(DE3) pLPP with the pET19-DCLK1 isoform 4 plasmid, purified
Kd [14]: ~100 nM
